In US10479780B2, “Aminopyrazole derivatives” (Chugai Seiyaku Kabushiki Kaisha, priority 2015, dated 2019):

Columns and labels:
Assay type in all cases: biochemical
human Src enzyme = target: T1, human Src enzyme (Homo sapiens, UniProt P12931); test: Src enzyme inhibitory activity (time-resolved fluorometry, biotinylated peptide phosphorylation); conditions: read-out: SRC_IC50
T1 construct: purchased Carna Biosciences, Inc. 08-173
In short: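 Compounds were tested for blocking tyrosine phosphorylation of a biotinylated peptide substrate by recombinant human Src. Phosphorylated product was quantified by time-resolved fluorometry using europium cryptate and XL665 conjugates, and IC50 was calculated against the compound-free control.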

human Lck enzyme = target: T2, human Lck enzyme (Homo sapiens, UniProt P06239); test: Lck enzyme inhibitory activity (time-resolved fluorometry, biotinylated peptide phosphorylation); conditions: read-out: LCK_IC50
T2 construct: purchased Carna Biosciences, Inc. 08-170
In short: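 Readout pairs a europium cryptate-labelled anti-phosphotyrosine antibody with XL665-streptavidin, measured by time-resolved fluorescence. IC50 derived from percent inhibition against untreated controls.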

human Yes1 enzyme = target: T3, human Yes1 enzyme (Homo sapiens, UniProt P07947); test: Yes1 enzyme inhibitory activity (time-resolved fluorometry, biotinylated peptide phosphorylation); conditions: read-out: YES_IC50
T3 construct: made in house
In short: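 Inhibition was expressed against a compound-free control to give IC50, using TR-FRET read-out (Eu-cryptate anti-pTyr antibody, streptavidin-XL665).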

T2 sequence (P06239 whole entry): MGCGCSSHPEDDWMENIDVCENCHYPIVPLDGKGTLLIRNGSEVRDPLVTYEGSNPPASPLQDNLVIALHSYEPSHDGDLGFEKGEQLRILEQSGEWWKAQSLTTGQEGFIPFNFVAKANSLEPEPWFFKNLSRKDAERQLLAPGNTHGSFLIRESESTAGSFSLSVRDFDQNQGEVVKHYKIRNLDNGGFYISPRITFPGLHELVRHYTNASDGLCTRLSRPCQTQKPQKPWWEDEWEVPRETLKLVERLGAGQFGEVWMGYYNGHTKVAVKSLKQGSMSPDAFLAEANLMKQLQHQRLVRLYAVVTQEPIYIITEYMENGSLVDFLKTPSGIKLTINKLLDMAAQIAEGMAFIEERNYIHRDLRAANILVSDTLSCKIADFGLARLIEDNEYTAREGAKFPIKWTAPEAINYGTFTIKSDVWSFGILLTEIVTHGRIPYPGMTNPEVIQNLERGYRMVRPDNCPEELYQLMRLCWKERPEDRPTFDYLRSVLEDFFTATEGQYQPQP
T1 sequence (P12931 whole entry): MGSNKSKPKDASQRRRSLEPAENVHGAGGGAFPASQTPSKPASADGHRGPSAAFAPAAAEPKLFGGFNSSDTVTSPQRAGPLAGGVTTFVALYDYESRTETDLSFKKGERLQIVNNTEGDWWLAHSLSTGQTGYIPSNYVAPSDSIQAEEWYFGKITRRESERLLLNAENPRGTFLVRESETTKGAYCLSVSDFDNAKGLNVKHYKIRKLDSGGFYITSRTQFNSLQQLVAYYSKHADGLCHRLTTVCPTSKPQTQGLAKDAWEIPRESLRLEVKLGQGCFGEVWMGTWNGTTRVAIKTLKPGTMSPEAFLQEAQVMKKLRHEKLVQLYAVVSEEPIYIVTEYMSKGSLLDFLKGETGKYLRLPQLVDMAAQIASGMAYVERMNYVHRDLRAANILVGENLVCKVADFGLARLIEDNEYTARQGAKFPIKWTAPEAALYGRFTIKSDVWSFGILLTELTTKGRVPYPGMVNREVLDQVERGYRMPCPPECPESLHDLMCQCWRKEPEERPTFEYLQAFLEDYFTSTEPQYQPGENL
T3 sequence (P07947 whole entry): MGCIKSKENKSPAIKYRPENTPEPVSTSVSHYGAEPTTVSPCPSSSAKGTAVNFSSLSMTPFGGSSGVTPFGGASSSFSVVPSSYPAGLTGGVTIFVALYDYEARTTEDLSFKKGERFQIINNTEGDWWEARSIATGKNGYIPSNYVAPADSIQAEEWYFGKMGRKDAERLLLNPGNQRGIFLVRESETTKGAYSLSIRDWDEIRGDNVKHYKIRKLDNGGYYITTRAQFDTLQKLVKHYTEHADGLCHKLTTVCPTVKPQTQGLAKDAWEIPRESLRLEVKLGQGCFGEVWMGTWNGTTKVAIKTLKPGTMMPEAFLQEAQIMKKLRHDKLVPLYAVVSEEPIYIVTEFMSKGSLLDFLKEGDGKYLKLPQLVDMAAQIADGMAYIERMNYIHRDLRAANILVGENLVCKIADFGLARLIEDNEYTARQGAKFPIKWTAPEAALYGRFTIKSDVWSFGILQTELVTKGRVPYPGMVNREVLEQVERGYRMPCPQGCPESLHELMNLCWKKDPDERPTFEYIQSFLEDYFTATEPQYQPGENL

Row | Compound | IC50 (human Src enzyme) | IC50 (human Lck enzyme) | IC50 (human Yes1 enzyme)
1 | Cc1cc2cc(C(=O)c3cnn(-c4cc(C)c(Oc5ccccc5F)cc4C)c3N)[nH]c2cc1NS(C)(=O)=O [Example 5-1-200, N-[2-[5-amino-1-[4-(2-fluorophenoxy)-2,5-dimethylphenyl]pyrazole-4-carbonyl]-5-methyl-1H-indol-6-yl]methanesulfonamide] | 920 nM | 270 nM | 52 nM
2 | Cc1cc2cc(C(=O)c3cnn(-c4ccc(Oc5ccccc5F)c(C)c4F)c3N)[nH]c2cc1NS(C)(=O)=O [Example 5-1-207, N-[2-[5-ainino-1-[2-fluoro-4-(2-fluorophenoxy)-3-methylphenyl]pyrazole-4-carbonyl]-5-methyl-1H-indol-6-yl]methanesulfonamide] | 350 nM | 82 nM | 1.9 nM
3 | Cc1cc(-n2ncc(C(=O)c3cc4cc(OC5CCN(C(C)C)CC5)c(F)cc4[nH]3)c2N)ccc1Oc1cccc(F)c1 [Example 5-1-208, [5-amino-1-[4-(3-fluorophenoxy)-3-methylphenyl]pyrazol-4-yl]-[6-fluoro-5-(1-propan-2-ylpiperidin-4-yl)oxy-1H-indol-2-yl] methanone] | 450 nM | 65 nM | 3.7 nM
4 | Cc1cc(-n2ncc(C(=O)c3cc4cc(OC5CCN(C(C)C)CC5)c(Cl)cc4[nH]3)c2N)ccc1Oc1cccc(F)c1 [Example 5-1-209, [5-amino-1-[4-(3-fluorophenoxy)-3-methylphenyl]pyrazol-4-yl]-[6-chloro-5-(1-propan-2-ylpiperidin-4-yl)oxy-1H-indol-2-yl] methanone] | 420 nM | 98 nM | 4.4 nM
5 | Cc1cc(-n2ncc(C(=O)c3cc4cc(OC5CCN(C(C)C)CC5)c(Br)cc4[nH]3)c2N)ccc1Oc1cccc(F)c1 [Example 5-1-210, [5-amino-1-[4-(3-fluorophenoxy)-3-methylphenyl]pyrazol-4-yl]-[6-bromo-5-(1-propan-2-ylpiperidin-4-yl)oxy-1H-indol-2-yl] methanone] | 510 nM | 120 nM | 6.5 nM
6 | Cc1cc(-n2ncc(C(=O)c3cc4cc(OC5CCN(C(C)C)CC5)c(Br)cc4[nH]3)c2N)c(F)cc1Oc1ccccc1F [Example 5-1-212, [5-amino-1-[2-fluoro-4-(2-fluorophenoxy)-5-methylphenyl]pyrazol-4-yl]-[6-bromo-5-(1-propan-2-ylpiperidin-4-yl)oxy-1H-indol-2-yl] methanone] | 220 nM | 60 nM | 4.5 nM
7 | Cc1cc2cc(C(=O)c3cnn(-c4ccc(Oc5ccccc5F)c(C)c4C)c3N)[nH]c2cc1NS(C)(=O)=O [Example 5-1-213, N-[2-[5-amino-1-[4-(2-fluorophenoxy)-2,3-dimethylphenyl]pyrazole-4-carbonyl]-5-methyl-1H-indol-6-yl]methanesulfonamide] | 600 nM | 150 nM | 9.8 nM
8 | Cc1cc(-n2ncc(C(=O)c3cc4cc(OC5CCN(C(C)C)CC5)c(N5CCC(N6CCOCC6)CC5)cc4[nH]3)c2N)c(F)cc1Oc1ccccc1F [Example 5-1-215, [5-amino-1-[2-fluoro-4-(2-fluorophenoxy)-5-methylphenyl]pyrazol-4-yl]-[6-(4-morpholin-4-ylpiperidin-1-yl)-5-(1-propan-2-ylpiperidin-4-yl)oxy-1H-indol-2-yl]methanone] | 82 nM | 6 nM | 0.81 nM
9 | Cc1cc(-n2ncc(C(=O)c3cc4cc(OC5CCN(C6CCCC6)CC5)c(Br)cc4[nH]3)c2N)ccc1Oc1ccccc1F [Example 5-1-216, [5-amino-1-[4-(2-fluorophenoxy)-3-methylphenyl]pyrazol-4-yl]-[6-bromo-5-(1-cyclopentylpiperidin-4-yl)oxy-1H-indol-2-yl] methanone] | 1000 nM | 47 nM | 1.7 nM
10 | Cc1cc(-n2ncc(C(=O)c3cc4cc(OCC(F)F)c(C5CCN(S(C)(=O)=O)CC5)cc4[nH]3)c2N)ccc1Oc1ccccc1F [Example 5-1-217, [5-amino-1-[4-(2-fluorophenoxy)-3-methylphenyl]pyrazol-4-yl]-[5-(2,2-difluoroethoxy)-6-(1-methylsulfonylpiperidin-4-yl)-1H-indol-2-yl]methanone] | 150 nM | 48 nM | 1.4 nM
11 | Cc1cc(-n2ncc(C(=O)c3cc4cc(OC5CCN(C6CCC6)CC5)c(Br)cc4[nH]3)c2N)ccc1Oc1ccccc1F [Example 5-1-218, [5-amino-1-[4-(2-fluorophenoxy)-3-methylphenyl]pyrazol-4-yl]-[6-bromo-5-(1-cyclobutylpiperidin-4-yl)oxy-1H-indol-2-yl] methanone] | 220 nM | 39 nM | 0.64 nM
12 | Cc1cc(-n2ncc(C(=O)c3cc4cc(OC5CCN(C6CC6)CC5)c(Br)cc4[nH]3)c2N)ccc1Oc1ccccc1F [Example 5-1-219, [5-amino-1-[4-(2-fluorophenoxy)-3-methylphenyl]pyrazol-4-yl]-[6-bromo-5-(1-cyclopropylpiperidin-4-yl)oxy-1H-indol-2-yl] methanone] | 460 nM | 83 nM | 1.3 nM
13 | Cc1cc(-n2ncc(C(=O)c3cc4cc(OC5CCN(C6COC6)CC5)c(Br)cc4[nH]3)c2N)ccc1Oc1ccccc1F [Example 5-1-220, (5-amino-1-(4-(2-fluorophenoxy)-3-methylphenyl)-1H-pyrazol-4-yl)(6-bromo-5-((1-(oxetan-3-yl)piperidin-4-yl)oxy)-1H-indol-2-yl)methanone] | 180 nM | 56 nM | 1.5 nM

These reach a lower IC50 (human Src enzyme). Values come first.

Row | IC50 (human Src enzyme) | IC50 (human Lck enzyme) | IC50 (human Yes1 enzyme) | Compound
14 | 52 nM | 11 nM | 0.99 nM | Cc1cc2cc(C(=O)c3cnn(-c4ccc(Oc5ccccc5F)c(F)c4F)c3N)[nH]c2cc1NS(C)(=O)=O [Example 5-1-214, N-[2-[5-amino-1-[2,3-difluoro-4-(2-fluorophenoxy)phenyl]pyrazole-4-carbonyl]-5-methyl-1H-indol-6-yl]methanesulfonamide]
15 | 15 nM | 7.2 nM | 0.43 nM | Cc1cc(Oc2c(F)cccc2F)ncc1-n1ncc(C(=O)c2cc3cc(OC4CCN(C(C)C)CC4)c(Cl)cc3[nH]2)c1N [Example 5-1-205, [5-amino-1-[6-(2,6-difluorophenoxy)-4-methylpyridin-3-yl]pyrazol-4-yl]-[6-chloro-5-(1-propan-2-ylpiperidin-4-yl)oxy-1H-indol-2-yl] methanone]
16 | 10 nM | 6.7 nM | 0.5 nM | Cc1cc(Oc2c(F)cccc2F)ncc1-n1ncc(C(=O)c2cc3cc(OC4CCN(C(C)C)CC4)c(F)cc3[nH]2)c1N [Example 5-1-204, [5-amino-1-[6-(2,6-difluorophenoxy)-4-methylpyridin-3-yl]pyrazol-4-yl]-[6-fluoro-5-(1-propan-2-ylpiperidin-4-yl)oxy-1H-indol-2-yl] methanone]
17 | 7.4 nM | 7.2 nM | 1.5 nM | Cc1cc(Oc2c(F)cccc2F)ncc1-n1ncc(C(=O)c2cc3cc(OC4CCN(C5CCCC5)CC4)c(Br)cc3[nH]2)c1N [Example 5-1-223, [5-amino-1-[6-(2,6-difluorophenoxy)-4-methylpyridin-3-yl]pyrazol-4-yl]-[6-bromo-5-(1-cyclopentylpiperidin-4-yl)oxy-1H-indol-2-yl] methanone]
18 | 7 nM | 6.2 nM | 0.36 nM | Cc1cc(Oc2ccccc2F)ccc1-n1ncc(C(=O)c2cc3cc(OC4CCN(C(C)C)CC4)c(F)cc3[nH]2)c1N [Example 5-1-203, [5-amino-1-[4-(2-fluorophenoxy)-2-methylphenyl]pyrazol-4-yl]-[6-fluoro-5-(1-propan-2-ylpiperidin-4-yl)oxy-1H-indol-2-yl]methanone]
19 | 6.4 nM | 7.5 nM | 0.66 nM | Cc1cc(Oc2c(F)cccc2F)ncc1-n1ncc(C(=O)c2cc3cc(OC4CCN(C5CCC5)CC4)c(Br)cc3[nH]2)c1N [Example 5-1-221, [5-amino-1-[6-(2,6-difluorophenoxy)-4-methylpyridin-3-yl]pyrazol-4-yl]-[6-bromo-5-(1-cyclobutylpiperidin-4-yl)oxy-1H-indol-2-yl] methanone]
20 | 4.7 nM | 7.5 nM | 1.3 nM | Cc1cc(Oc2c(F)cccc2F)ncc1-n1ncc(C(=O)c2cc3cc(OC4CCN(C5COC5)CC4)c(Br)cc3[nH]2)c1N [Example 5-1-222, [5-amino-1-[6-(2,6-difluorophenoxy)-4-methylpyridin-3-yl]pyrazol-4-yl]-[6-bromo-5-[1-(oxetan-3-yl)plperidin-4-yl]oxy-1H-indol-2-yl] methanone]
21 | 3.5 nM | 3.2 nM | 0.25 nM | Cc1cc(Oc2c(F)cccc2F)ncc1-n1ncc(C(=O)c2cc3cc(OC4CCN(C(C)C)CC4)c(N4CCC(N5CCOCC5)CC4)cc3[nH]2)c1N [Example 5-1-201, [5-amino-1-[6-(2,6-difluorophenoxy)-4-methylpyridin-3-yl]pyrazol-4-yl]-[6-(4-morpholin-4-ylpiperidin-1-yl)-5-(1-propan-2-ylpiperidin-4-yl)oxy-1H-indol-2-yl]methanone]
22 | 3.1 nM | 2.8 nM | 0.17 nM | Cc1cc(Oc2c(F)cccc2F)ncc1-n1ncc(C(=O)c2cc3cc(OC4CCN(C(C)C)CC4)c(N4CCC(O)CC4)cc3[nH]2)c1N [Example 5-1-202, [5-amino-1-[6-(2,6-difluorophenoxy)-4-methylpyridin-3-yl]pyrazol-4-yl]-[6-(4-hydroxypiperidin-1-yl)-5-(1-propan-2-ylpiperidin-4-yl)oxy-1H-indol-2-yl]methanone]
